Measured values published in ChEMBL document CHEMBL4715697, “Synthesis and biological activity of benzamide DNA minor groove binders” (2016).

How the values were obtained:
Type in all cases: functional
Conditions in all cases: read-out: Activity
KM12 = assay: Growth inhibition of human KM12 cells assessed as cell growth at 10 uM incubated for 48 hrs by sulforhodamine B assay relative to control
HCC 2998 = assay: Growth inhibition of human HCC 2998 cells assessed as cell growth at 10 uM incubated for 48 hrs by sulforhodamine B assay relative to control
HL-60(TB) = assay: Growth inhibition of human HL-60(TB) cells assessed as cell growth at 10 uM incubated for 48 hrs by sulforhodamine B assay relative to control
NCI/ADR-RES = assay: Growth inhibition of human NCI/ADR-RES cells assessed as cell growth at 10 uM incubated for 48 hrs by sulforhodamine B assay relative to control
UACC-62 = assay: Growth inhibition of human UACC-62 cells assessed as cell growth at 10 uM incubated for 48 hrs by sulforhodamine B assay relative to control
SR = assay: Growth inhibition of human SR cells assessed as cell growth at 10 uM incubated for 48 hrs by sulforhodamine B assay relative to control
SF-268 = assay: Growth inhibition of human SF-268 cells assessed as cell growth at 10 uM incubated for 48 hrs by sulforhodamine B assay relative to control
SF-539 = assay: Growth inhibition of human SF-539 cells assessed as cell growth at 10 uM incubated for 48 hrs by sulforhodamine B assay relative to control
NCI-H322M = assay: Growth inhibition of human NCI-H322M cells assessed as cell growth at 10 uM incubated for 48 hrs by sulforhodamine B assay relative to control
NCI-H226 = assay: Growth inhibition of human NCI-H226 cells assessed as cell growth at 10 uM incubated for 48 hrs by sulforhodamine B assay relative to control
NCI-H23 = assay: Growth inhibition of human NCI-H23 cells assessed as cell growth at 10 uM incubated for 48 hrs by sulforhodamine B assay relative to control
UACC-257 = assay: Growth inhibition of human UACC-257 cells assessed as cell growth at 10 uM incubated for 48 hrs by sulforhodamine B assay relative to control
M14 = assay: Growth inhibition of human M14 cells assessed as cell growth at 10 uM incubated for 48 hrs by sulforhodamine B assay relative to control
MDA-MB-435 = assay: Growth inhibition of human MDA-MB-435 cells assessed as cell growth at 10 uM incubated for 48 hrs by sulforhodamine B assay relative to control
HCT-15 = assay: Growth inhibition of human HCT-15 cells assessed as cell growth at 10 uM incubated for 48 hrs by sulforhodamine B assay relative to control
HT-29 = assay: Growth inhibition of human HT-29 cells assessed as cell growth at 10 uM incubated for 48 hrs by sulforhodamine B assay relative to control
SNB-19 = assay: Growth inhibition of human SNB-19 cells assessed as cell growth at 10 uM incubated for 48 hrs by sulforhodamine B assay relative to control
RPMI-8226 = assay: Growth inhibition of human RPMI-8226 cells assessed as cell growth at 10 uM incubated for 48 hrs by sulforhodamine B assay relative to control
EKVX = assay: Growth inhibition of human EKVX cells assessed as cell growth at 10 uM incubated for 48 hrs by sulforhodamine B assay relative to control
U-251 = assay: Growth inhibition of human U-251 cells assessed as cell growth at 10 uM incubated for 48 hrs by sulforhodamine B assay relative to control
SNB-75 = assay: Growth inhibition of human SNB-75 cells assessed as cell growth at 10 uM incubated for 48 hrs by sulforhodamine B assay relative to control
CCRF-CEM = assay: Growth inhibition of human CCRF-CEM cells assessed as cell growth at 10 uM incubated for 48 hrs by sulforhodamine B assay relative to control
UO-31 = assay: Growth inhibition of human UO-31 cells assessed as cell growth at 10 uM incubated for 48 hrs by sulforhodamine B assay relative to control
786-0 = assay: Growth inhibition of human 786-0 cells assessed as cell growth at 10 uM incubated for 48 hrs by sulforhodamine B assay relative to control
SK-MEL-2 = assay: Growth inhibition of human SK-MEL-2 cells assessed as cell growth at 10 uM incubated for 48 hrs by sulforhodamine B assay relative to control
HOP-62 = assay: Growth inhibition of human HOP-62 cells assessed as cell growth at 10 uM incubated for 48 hrs by sulforhodamine B assay relative to control
ACHN = assay: Growth inhibition of human ACHN cells assessed as cell growth at 10 uM incubated for 48 hrs by sulforhodamine B assay relative to control
NCI-H460 = assay: Growth inhibition of human NCI-H460 cells assessed as cell growth at 10 uM incubated for 48 hrs by sulforhodamine B assay relative to control
Malme-3M = assay: Growth inhibition of human Malme-3M cells assessed as cell growth at 10 uM incubated for 48 hrs by sulforhodamine B assay relative to control
MOLT-4 = assay: Growth inhibition of human MOLT-4 cells assessed as cell growth at 10 uM incubated for 48 hrs by sulforhodamine B assay relative to control
TK-10 = assay: Growth inhibition of human TK-10 cells assessed as cell growth at 10 uM incubated for 48 hrs by sulforhodamine B assay relative to control
NCI-H522 = assay: Growth inhibition of human NCI-H522 cells assessed as cell growth at 10 uM incubated for 48 hrs by sulforhodamine B assay relative to control
SK-MEL-5 = assay: Growth inhibition of human SK-MEL-5 cells assessed as cell growth at 10 uM incubated for 48 hrs by sulforhodamine B assay relative to control
DU-145 = assay: Growth inhibition of human DU-145 cells assessed as cell growth at 10 uM incubated for 48 hrs by sulforhodamine B assay relative to control
K562 = assay: Growth inhibition of human K562 cells assessed as cell growth at 10 uM incubated for 48 hrs by sulforhodamine B assay relative to control
PC-3 = assay: Growth inhibition of human PC-3 cells assessed as cell growth at 10 uM incubated for 48 hrs by sulforhodamine B assay relative to control
OVCAR-5 = assay: Growth inhibition of human OVCAR-5 cells assessed as cell growth at 10 uM incubated for 48 hrs by sulforhodamine B assay relative to control
BT-549 = assay: Growth inhibition of human BT-549 cells assessed as cell growth at 10 uM incubated for 48 hrs by sulforhodamine B assay relative to control
T47D = assay: Growth inhibition of human T47D cells assessed as cell growth at 10 uM incubated for 48 hrs by sulforhodamine B assay relative to control
CAKI-1 = assay: Growth inhibition of human CAKI-1 cells assessed as cell growth at 10 uM incubated for 48 hrs by sulforhodamine B assay relative to control

| Compound | growth at 10 µM (KM12) [%] | growth at 10 µM (HCC 2998) [%] | growth at 10 µM (HL-60(TB)) [%] | growth at 10 µM (NCI/ADR-RES) [%] | growth at 10 µM (UACC-62) [%] | growth at 10 µM (SR) [%] | growth at 10 µM (SF-268) [%] | growth at 10 µM (SF-539) [%] | growth at 10 µM (NCI-H322M) [%] | growth at 10 µM (NCI-H226) [%] | growth at 10 µM (NCI-H23) [%] | growth at 10 µM (UACC-257) [%] | growth at 10 µM (M14) [%] | growth at 10 µM (MDA-MB-435) [%] | growth at 10 µM (HCT-15) [%] | growth at 10 µM (HT-29) [%] | growth at 10 µM (SNB-19) [%] | growth at 10 µM (RPMI-8226) [%] | growth at 10 µM (EKVX) [%] | growth at 10 µM (U-251) [%] | other results |
| --- | --- | --- | --- | --- | --- | --- | --- | --- | --- | --- | --- | --- | --- | --- | --- | --- | --- | --- | --- | --- | --- |
| CC(=O)Nc1ccc(C(=O)Nc2cc(CO)cc(NC(C)=O)c2)cc1 | 115 | 99.4 | 101 | 110 | 101 | 92.1 | 108 | 107 | 109 | 99.9 | 107 | 107 | 98.3 | 108 | 106 | 106 | 100 | 96.6 | 112 | 110 | growth at 10 µM (SNB-75): 96.7%; growth at 10 µM (CCRF-CEM): 82.2%; growth at 10 µM (UO-31): 101%; growth at 10 µM (786-0): 99.4%; growth at 10 µM (SK-MEL-2): 96.3%; growth at 10 µM (HOP-62): 106%; growth at 10 µM (ACHN): 108%; growth at 10 µM (NCI-H460): 109%; growth at 10 µM (Malme-3M): 115%; growth at 10 µM (MOLT-4): 96%; growth at 10 µM (TK-10): 101%; growth at 10 µM (NCI-H522): 89.5%; growth at 10 µM (SK-MEL-5): 98.8%; growth at 10 µM (DU-145): 108%; growth at 10 µM (K562): 99.5%; growth at 10 µM (PC-3): 104%; growth at 10 µM (OVCAR-5): 105%; growth at 10 µM (BT-549): 108%; growth at 10 µM (T47D): 94.7% |
| CC(=O)Nc1cc(CO[Si](C)(C)C(C)(C)C)cc(NC(=O)c2ccc(C(=O)Nc3cccc(NC(=O)CCCN(C)C)c3)cc2)c1 | 95 | 93 | 81 | 88 | 89 | 108 | 94 | 89 | 102 | 85 | 90 | 87 | 90 | 96 | 85 | 106 | 100 | 106 | 91 | 87 | growth at 10 µM (CAKI-1): 86%; growth at 10 µM (SNB-75): 73%; growth at 10 µM (CCRF-CEM): 109%; growth at 10 µM (UO-31): 105%; growth at 10 µM (786-0): 95%; growth at 10 µM (SK-MEL-2): 102%; growth at 10 µM (HOP-62): 92%; growth at 10 µM (ACHN): 90%; growth at 10 µM (NCI-H460): 95%; growth at 10 µM (Malme-3M): 88%; growth at 10 µM (MOLT-4): 91%; growth at 10 µM (TK-10): 104%; growth at 10 µM (NCI-H522): 82%; growth at 10 µM (SK-MEL-5): 89%; growth at 10 µM (DU-145): 97%; growth at 10 µM (K562): 93%; growth at 10 µM (PC-3): 97%; growth at 10 µM (OVCAR-5): 80%; growth at 10 µM (BT-549): 84%; growth at 10 µM (T47D): 73% |
